Assay results: PubChem BioAssay (NCI)
Where “and” joins values, the source holds several entries; their conditions need not be identical. Equal entries are not always repeated.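 Following 48 hours of exposure in 96-well plates, responses at five concentrations were used to interpolate endpoints linearly. GI50 marks 50% less growth. The concentration for full growth arrest is given as TGI.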

Tests used:
Test in all cases: DTP human tumour cell line panel, 48 h
KM12 colon = tested on: KM12 colon
SK-MEL-5 melanoma = tested on: SK-MEL-5 melanoma
T-47D breast = tested on: T-47D breast
OVCAR-8 ovarian = tested on: OVCAR-8 ovarian
OVCAR-5 ovarian = tested on: OVCAR-5 ovarian
U251 CNS = tested on: U251 CNS
SK-MEL-2 melanoma = tested on: SK-MEL-2 melanoma
SNB-75 CNS = tested on: SNB-75 CNS
M14 melanoma = tested on: M14 melanoma
NCI/ADR-RES ovarian = tested on: NCI/ADR-RES ovarian

| SMILES | TGI (KM12 colon) | TGI (SK-MEL-5 melanoma) | TGI (T-47D breast) | TGI (OVCAR-8 ovarian) | TGI (OVCAR-5 ovarian) | TGI (U251 CNS) | TGI (SK-MEL-2 melanoma) | TGI (SNB-75 CNS) | TGI (M14 melanoma) | TGI (NCI/ADR-RES ovarian) | GI50 (KM12 colon) | GI50 (SK-MEL-5 melanoma) | GI50 (T-47D breast) | GI50 (OVCAR-8 ovarian) | GI50 (OVCAR-5 ovarian) | GI50 (U251 CNS) | GI50 (SNB-75 CNS) | GI50 (NCI/ADR-RES ovarian) | GI50 (SK-MEL-2 melanoma) | GI50 (M14 melanoma) |
| --- | --- | --- | --- | --- | --- | --- | --- | --- | --- | --- | --- | --- | --- | --- | --- | --- | --- | --- | --- | --- |
| OCCNc1ncnc2c1ncn2C1OC(CO)C(O)C1O (stereo unspecified) | > 100 µM | > 100 µM | > 100 µM | > 100 µM | > 100 µM | > 100 µM | > 100 µM | > 100 µM | > 100 µM | > 100 µM |  |  |  |  |  |  |  |  |  |  |
| C/C(=N\NC(=O)c1ccccc1O)c1cccc(/C(C)=N/NC(=O)c2ccccc2O)n1 | > 100 µM | 44.9 µM and > 48 µM | > 100 µM | 51.6 µM and > 100 µM | 49.5 µM and > 100 µM | 15.8 µM and > 100 µM | 38.9 µM and > 100 µM | 33.5 µM and > 61.9 µM | > 100 µM | > 100 µM | 0.456 µM | 0.621 µM | 2.3 µM | 0.571 µM | 10.8 µM and > 95.7 µM | 2.02 µM and 0.502 µM | 23 µM | > 100 µM |  |  |
| Nc1nc(N)c2c(ccc3nccc32)[nH]1 | 27.1 µM | > 33.9 µM | > 80 µM | > 100 µM | > 100 µM | > 69.5 µM | 37.1 µM | 89.4 µM | > 79.8 µM | > 100 µM | 5.05 µM | 2.28 µM | 14.9 µM | 4.62 µM | 12.4 µM | 3.22 µM | 17.2 µM | 6.61 µM | 10.1 µM | 1.92 µM |
| CN(C)C(=O)c1cc2cnc(Nc3ccc(-c4csc5c(=O)cc(N6CCNCC6)oc45)cc3)nc2n1C1CCCC1 | 1.58 µM | 2.51 µM | 9.5 µM | > 42.5 µM | 5.11 µM | 1.96 µM | 7.14 µM | 2.03 µM | 2.59 µM | 32.7 µM | 0.345 µM | 1.18 µM | 0.949 µM | 1.21 µM | 0.491 µM | 0.561 µM | 0.313 µM | 6.9 µM | 2.09 µM | 0.99 µM |
| Cc1cc2c3ccccc3ccc2[n+]2ccccc12 | 11.6 µM | 3.78 µM | 6.8 µM | 21.9 µM | > 100 µM | 10.1 µM | 22.7 µM | > 33.7 µM | 22.8 µM | > 100 µM | 1.43 µM | 1.63 µM | 1.86 µM | 2.43 µM | 30.3 µM | 1.06 µM | 4.66 µM | > 100 µM | 6.26 µM | 6.53 µM |
| Nc1ncnc2c(C3OC(CO)C(O)C3O)[nH]nc12 (stereo unspecified) | 8.13 µM and 14.3 µM | 10.9 µM and 7.47 µM | 1.57 µM | 0.624 µM and 0.713 µM | 3.58 µM and 8.57 µM | 25.4 µM | 0.739 µM and 0.5 µM | 5.29 µM and 1.25 µM | 13.5 µM | 2.85 µM and 1.17 µM | 0.076 µM | 0.984 µM | 0.0308 µM | 0.0375 µM and 0.0527 µM | 0.0727 µM | 1.39 µM |  | 0.0484 µM | 0.0507 µM | 0.248 µM |
| O=C1c2cc3c(cc2[C@@H]2[C@H]1c1ccc([N+](=O)[O-])cc1C(=O)N2CCCCl)OCO3 | 2.05 µM | < 0.01 µM | > 100 µM | > 100 µM |  | < 0.0128 µM | > 100 µM | > 100 µM | < 0.01 µM | 0.548 µM | < 0.0113 µM | < 0.01 µM | > 100 µM | < 0.01 µM | < 0.0144 µM | < 0.01 µM | < 0.0253 µM | < 0.01 µM | 0.0827 µM | < 0.01 µM |
| N#CSCc1c(Cl)cccc1Cl |  | 21.2 µM | > 96.1 µM | > 100 µM | > 100 µM | > 100 µM | > 100 µM | > 100 µM | > 100 µM | > 100 µM |  | 4.5 µM | 13.3 µM | 4.8 µM | 7.41 µM | 3.83 µM | 20.2 µM | 6.25 µM | 4.02 µM | 3.05 µM |
| COc1ccc(-c2cc(-c3cn[nH]c3-c3ccccn3)ccn2)cc1 | > 25 µM | > 25 µM | > 25 µM | > 25 µM | > 25 µM | > 25 µM | > 25 µM | > 25 µM | > 25 µM | > 25 µM | > 25 µM | > 25 µM | > 25 µM | > 25 µM | > 25 µM | > 25 µM | > 25 µM | > 25 µM | > 25 µM | > 25 µM |
| C/C1=C\C/C=C(\C)[C@H]2CC(CC/C(C)=C/CC1)[C@@](C)(CO)O2 | > 100 µM | > 100 µM | > 100 µM | > 100 µM | > 100 µM | > 100 µM | > 100 µM | > 100 µM | > 100 µM | > 100 µM | 62.7 µM | 87.3 µM | > 100 µM | > 100 µM | > 100 µM | 84.2 µM | > 100 µM | > 100 µM | 44.9 µM | 71.7 µM |
| O=C(OCC1OC(OC(=O)c2cc(O)c(O)c(OC(=O)c3cc(O)c(O)c(O)c3)c2)C(OC(=O)c2cc(O)c(O)c(OC(=O)c3cc(O)c(O)c(O)c3)c2)C(OC(=O)c2cc(O)c(O)c(OC(=O)c3cc(O)c(O)c(O)c3)c2)C1OC(=O)c1cc(O)c(O)c(OC(=O)c2cc(O)c(O)c(O)c2)c1)c1cc(O)c(O)c(OC(=O)c2cc(O)c(O)c(O)c2)c1 (stereo unspecified) | 27.1 µM | 27.9 µM | > 50 µM | > 50 µM |  | > 50 µM | > 50 µM | > 50 µM | > 50 µM | > 50 µM | 7.23 µM | 10 µM | 13 µM | 25.6 µM |  | 14.6 µM | 38.8 µM | 19.2 µM | 20.6 µM | 25.3 µM |
| CC1(C)CC(=O)c2c(ccc(C(=O)C[C@H](N)CO)c2N)O1 | 17.5 µM and > 33.3 µM | 17.5 µM and > 33.3 µM | 17.5 µM and > 33.3 µM | 17.5 µM and > 33.3 µM | > 33.3 µM | 17.5 µM and > 33.3 µM | 17.5 µM and > 33.3 µM | > 33.3 µM | 17.5 µM and 11.3 µM | > 33.3 µM | 1.23 µM and 0.189 µM | 2.87 µM and 5.08 µM | 5.94 µM and 3.52 µM | 5.68 µM and 2.17 µM | > 33.3 µM | 1.47 µM and 0.247 µM | > 17.5 µM and 3.1 µM | > 17.5 µM and 7.51 µM | 12.5 µM and 5.2 µM |  |
